Results taken from patent US20110166123A1, “NOVEL COMPOSITIONS AND METHODS OF USE” (priority 2008, published 2011).

These molecules were tested on human immunodeficiency virus type 1 (HIV-1) (assay: microbe, parasite or virus in culture). Details: Human immunodeficiency virus 1, HeLa, 48 h, HIV-1 luciferase reporter, HeLa cells, 48 hours after infection.
Type: cell-based
With COc1nc2c(cc1Cc1ccc(F)c(F)c1)c(=O)c(C(=O)O)cn2[C@H](CO)C(C)C [Example 1B] the EC50 was greater than 100 nM. COc1nc2c(cc1Cc1cccc(Cl)c1F)c(=O)c(C(=O)O)cn2[C@@H](CO)C(C)C [Example 1C] gave an EC50 of 10 to 100 nM. COc1nc2c(cc1Cc1c(F)cc(F)cc1F)c(=O)c(C(=O)O)cn2[C@H](CO)C(C)C [Example 1D] was tested, and the EC50 was greater than 100 nM. In the case of COc1nc2c(cc1Cc1ccc(F)cc1F)c(=O)c(C(=O)O)cn2[C@H](CO)C(C)C [Example 1E], the EC50 is reported as 10 to 100 nM. In the case of COc1nc2c(cc1Cc1cccc(Cl)c1F)c(=O)c(C(=O)O)cn2[C@@H](C)CO [Example 1F], the EC50 is reported as greater than 100 nM. With CCC(C)[C@@H](CO)n1cc(C(=O)O)c(=O)c2cc(Cc3cccc(Cl)c3F)c(OC)nc21 (some centres unmarked) [Example 1G] the EC50 was less than 10 nM. COc1nc2c(cc1Cc1cccc(Cl)c1F)c(=O)c(C(=O)O)cn2[C@H](CO)C(C)(C)C [Example 1H] was tested, and the EC50 was less than 10 nM. For CC[C@@H](CO)n1cc(C(=O)O)c(=O)c2cc(Cc3cccc(Cl)c3F)c(OC)nc21 [Example 1I], the EC50 was 10 to 100 nM. For CCCC(CO)n1cc(C(=O)O)c(=O)c2cc(Cc3cccc(Cl)c3F)c(OC)nc21 (centres unmarked) [Example 1J], the EC50 was 10 to 100 nM. COc1nc2c(cc1Cc1cccc(Cl)c1F)c(=O)c(C(=O)O)cn2[C@H](CO)CC(C)C [Example 1K] showed an EC50 of less than 10 nM. COc1nc2c(cc1Cc1cccc(Cl)c1F)c(=O)c(C(=O)O)cn2C(CO)CO [Example 1M] gave an EC50 greater than 100 nM. For COc1nc2c(cc1Cc1cccc(Cl)c1F)c(=O)c(C(=O)O)cn2C1CCOCC1 [Example 1N], the EC50 was greater than 100 nM. In the case of COc1nc2c(cc1Cc1cccc(Cl)c1F)c(=O)c(C(=O)O)cn2[C@H](CO)C1CCCCC1 [Example 1O], the EC50 is reported as less than 10 nM. COc1nc2c(cc1Cc1cccc(Cl)c1F)c(=O)c(C(=O)O)cn2[C@H]1CCCC[C@@H]1O [Example 1P] showed an EC50 greater than 100 nM. In the case of COc1nc2c(cc1Cc1cccc(Cl)c1F)c(=O)c(C(=O)O)cn2C[C@H](O)c1ccccc1 [Example 1Q], the EC50 is reported as greater than 100 nM. In the case of COc1nc2c(cc1Cc1cccc(Cl)c1F)c(=O)c(C(=O)O)cn2C[C@@H](O)c1ccccc1 [Example 1R], the EC50 is reported as greater than 100 nM. With CC(C)(C)[C@@H](CO)n1cc(C(=O)O)c(=O)c2cc(Cc3cccc(Cl)c3F)c(N3CCOCC3)nc21 [Example 2A, (S)-6-(3-chloro-2-fluorobenzyl)-7-morpholin-1-(1-hydroxy-3,3-dimethylbutan-2-yl)-4-oxo-1,4-dihydro-1,8-naphthyridine-3-carboxylic acid] the EC50 was less than 10 nM. Molecule COCCN1CCN(c2nc3c(cc2Cc2cccc(Cl)c2F)c(=O)c(C(=O)O)cn3[C@H](CO)C(C)(C)C)CC1 [Example 2AA] has an EC50 of 10 to 100 nM. CC(C)(C)[C@@H](CO)n1cc(C(=O)O)c(=O)c2cc(Cc3cccc(Cl)c3F)c(O)nc21 [Example 2B, (S)-6-(3-chloro-2-fluorobenzyl)-7-hydroxy-1-(1-hydroxy-3,3-dimethylbutan-2-yl)-4-oxo-1,4-dihydro-1,8-naphthyridine-3-carboxylic acid] was tested, and the EC50 was 10 to 100 nM. With CC(C)(C)[C@@H](CO)n1cc(C(=O)O)c(=O)c2cc(Cc3cccc(Cl)c3F)c(NCCN3CCOCC3)nc21 [Example 2CC] the EC50 was less than 10 nM. CCOc1nc2c(cc1Cc1cccc(Cl)c1F)c(=O)c(C(=O)O)cn2[C@H](CO)C(C)(C)C [Example 2C] gave an EC50 of less than 10 nM. Molecule CC(C)(C)[C@@H](CO)n1cc(C(=O)O)c(=O)c2cc(Cc3cccc(Cl)c3F)c(NCCCN3CCOCC3)nc21 [Example 2DD] has an EC50 of less than 10 nM. CC(C)Oc1nc2c(cc1Cc1cccc(Cl)c1F)c(=O)c(C(=O)O)cn2[C@H](CO)C(C)(C)C [Example 2D] was tested, and the EC50 was 10 to 100 nM. CC(C)(C)[C@@H](CO)n1cc(C(=O)O)c(=O)c2cc(Cc3cccc(Cl)c3F)c(NCCCN3CCCC3=O)nc21 [Example 2EE] gave an EC50 of less than 10 nM. For CC(C)(C)[C@@H](CO)n1cc(C(=O)O)c(=O)c2cc(Cc3cccc(Cl)c3F)c(OCCO)nc21 [Example 2E], the EC50 was less than 10 nM. CC(C)(C)[C@@H](CO)n1cc(C(=O)O)c(=O)c2cc(Cc3cccc(Cl)c3F)c(NCc3ccccn3)nc21 [Example 2FF] gave an EC50 of less than 10 nM.
